Patent publication US9981928B2, “Aryl sulfide derivatives and aryl sulfoxide derivatives as acaricides and insecticides” (BAYER CROPSCIENCE AKTIENGESELLSCHAFT, priority 2013, dated 2018)
Several values for one entry are separate records, joined by “and”; a condition that tells them apart may be missing. Equal values may be shown once. Read-outs that look alike come from different tables or passages of the source.

Columns and labels:
[1] = tested on: greenhouse red spider mite (Tetranychus urticae); assay: Tetranychus urticae spray test, OP-resistant (TETRUR), bean leaf disks; assay type: in vivo; conditions: bean leaf disks, after 6 days; for pest or weed control at 500 g/ha: Tetranychus urticae, foliar, 144 h, read-out: efficacy in %
How it was run: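 Bean leaf disks carrying all stages of OP-resistant Tetranychus urticae sprayed with compound in acetone/dimethylformamide diluted in emulsifier water. Kill assessed after 6 days as % efficacy, 100% meaning all mites dead.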

[2] = log P determination by HPLC on reversed-phase columns (C 18), analogously to OECD Guideline 117; assay type: physicochemical; conditions: for logP (HCOOH): LC-MS in the acidic range, pH 2.7, 0.1% aqueous formic acid / acetonitrile; for logP (HCOOH) / logP (neutral): HPLC reversed-phase C 18; for logP (neutral): LC-MS in the neutral range, pH 7.8, 0.001 molar aqueous ammonium hydrogencarbonate / acetonitrile; for chromatographic logP: reversed-phase C18 HPLC column
How it was run: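 Reversed-phase C18 HPLC per OECD 117 with LC-MS detection and a linear 10→95% acetonitrile gradient. Acidic log P run at pH 2.7 with 0.1% formic acid in both eluents. Neutral log P run at pH 7.8 with 0.001 M aqueous ammonium hydrogencarbonate.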

[3] = acidic range, pH 2.7, 0.1% aqueous formic acid and acetonitrile, read-out: log P[a] / log P(HCOOH)

| Structure (SMILES) | efficacy in % ([1]; application rate 500 g/ha) | logP (HCOOH) [2] | logP (neutral) [2] | pest or weed control at 500 g/ha ([1]; application rate 500 g/ha) [%] | chromatographic logP [2, 3] | efficacy in % ([1]; application rate 100 g/ha) [%] | chromatographic logP ([2]; neutral range, pH 7.8, 0.001 molar aqueous ammonium hydrogencarbonate and acetonitrile, read-out: log P[b] / log P(neutral)) |
| --- | --- | --- | --- | --- | --- | --- | --- |
| Cc1cc(F)c(-n2[nH]c(=O)n(C3CC3)c2=O)cc1SCC(F)(F)F [Example 66] | 100% | 2.30 | 0.69 |  |  |  |  |
| Cc1ccc(-n2c(=O)n(C)c(=O)n2C(C)C)cc1SCC(F)(F)F [Example 61] | 90% | 3.33 | 3.27 |  |  |  |  |
| Cc1cc(F)c(N2C(=O)OC(C)(C)C2=O)cc1SCC(F)(F)F [Example 111, 3-[2-Fluoro-4-methyl-5-(2,2,2-trifluoroethylsulfanyl)phenyl]-5,5-dimethyloxazolidine-2,4-dione] |  |  |  | 90 | 3.35 |  |  |
| Cc1cc(C)c(N2C(=O)CSC2=NC2CC2)cc1SCC(F)(F)F [Example 112] |  | 3.65 | 3.65 |  |  | 100 |  |
| CCn1c(=O)n(-c2ccc(C)c([S+]([O-])CC(F)(F)F)c2)n(C(C)C)c1=O (stereo not drawn) [Example 140] | 90% | 2.56 | 2.54 |  |  |  |  |
| CCC1(CC)C(=O)N(C)N(c2cc([S+]([O-])CC(F)(F)F)c(C)cc2F)C1=O (stereo not drawn) [Example 176] | 100% | 2.37 | 2.31 |  |  |  |  |
| C=CCn1c(=O)n(C2CC2)c(=O)n1-c1ccc(C)c([S+]([O-])CC(F)(F)F)c1 (stereo not drawn) [Example 49] | 90% | 2.28 | 2.24 |  |  |  |  |
| CCn1c(=O)n(C(C)(C)C)c(=O)n1-c1cc(SCC(F)(F)F)c(C)cc1F [Example 99] | 90% | 4.21 | 4.16 |  |  |  |  |
| CCn1c(=O)n(C(C)(C)C)c(=O)n1-c1cc([S+]([O-])CC(F)(F)F)c(C)cc1F (stereo not drawn) [Example 137] | 90% | 3.02 | 2.96 |  |  |  |  |
| CCCCN1CC(=O)N(c2cc(SCC(F)(F)F)c(C)cc2F)C1=O [Example 202] | 100% | 3.39 | 3.35 |  |  |  |  |
| CCCn1c(=O)n(C2CC2)c(=O)n1-c1cc([S+]([O-])CC(F)(F)F)c(C)cc1F (stereo not drawn) [Example 172] | 90% | 2.46 | 2.42 |  |  |  |  |
| Cc1cc(F)c(N2C(=O)C(=O)N(C3CC3)C2=O)cc1[S+]([O-])CC(F)(F)F (stereo not drawn) [Example 183] | 100% | 2.31 |  |  |  |  |  |
| Cc1cc(F)c(-n2c(=O)n(CC(F)F)c(=O)n2CC(F)(F)F)cc1SCC(F)(F)F [Example 156] | 90% | 3.44 | 3.51 |  |  |  |  |
| Cn1c(=O)n(C)n(-c2ccc(Br)c([S+]([O-])CC(F)(F)F)c2)c1=O (stereo not drawn) [Example 67] | 100% | 2.05 | 2.02 |  |  |  |  |
| Cn1c(=O)n(C2CC2)c(=O)n1-c1ccc(C#N)c([S+]([O-])CC(F)(F)F)c1 (stereo not drawn) [Example 43] | 90% | 1.93 | 1.90 |  |  |  |  |
| CCn1c(=O)n(C2CC2)c(=O)n1-c1cc([S+]([O-])CC(F)(F)F)c(C)cc1F (stereo not drawn) [Example 171] | 100% | 2.18 | 2.15 |  |  |  |  |
| Cc1ccc(-n2c(=O)n(C)c(=O)n2-c2ccc(C)c([S+]([O-])CC(F)(F)F)c2)cc1[S+]([O-])CC(F)(F)F (stereo not drawn) [Example 82] | 90% | 2.67 | 2.61 |  |  |  |  |
| Cc1cc(F)c(N2C(=O)C(=O)N(C(C)(C)C)C2=S)cc1[S+]([O-])CC(F)(F)F (stereo not drawn) [Example 196] | 90% | 3.45 | 3.41 |  |  |  |  |
| Cc1cc(F)c(N2C(=O)C(=O)N(CC(F)(F)F)C2=S)cc1SCC(F)(F)F [Example 189] | 90% | 3.95 |  |  |  |  |  |
| Cc1cc(F)c(N2C(=O)C3(CCC3)C(=O)N2C)cc1[S+]([O-])CC(F)(F)F (stereo not drawn) [Example 180] | 100% | 1.99 | 1.97 |  |  |  |  |

| Structure (SMILES) | efficacy in % ([1]; application rate 500 g/ha) | logP (HCOOH) [2] | logP (neutral) [2] | pest or weed control at 500 g/ha ([1]; application rate 500 g/ha) [%] | chromatographic logP [2, 3] | efficacy in % ([1]; application rate 100 g/ha) [%] | chromatographic logP ([2]; neutral range, pH 7.8, 0.001 molar aqueous ammonium hydrogencarbonate and acetonitrile, read-out: log P[b] / log P(neutral)) |
| --- | --- | --- | --- | --- | --- | --- | --- |
| Cc1cc(F)c(-n2c(=O)n(-c3ccccc3)c(=O)n2CC(F)(F)F)cc1[S+]([O-])CC(F)(F)F (stereo not drawn) [Example 167] | 90% | 3.05 | 3.01 |  |  |  |  |
| Cc1cc(F)c(-n2c(=O)n(C)n(CC3CC3)c2=O)cc1SCC(F)(F)F [Example 126] | 90% | 3.15 |  |  |  |  |  |
| Cc1cc(F)c(-n2c(=O)n(CC(F)F)c(=O)n2CC(F)(F)F)cc1[S+]([O-])CC(F)(F)F (stereo not drawn) [Example 168] | 90% | 2.60 | 2.58 |  |  |  |  |
| Cc1cc(F)c(N2C(=O)N(C)C(=O)C2(C)C)cc1SCC(F)(F)F [Example 217, 1-[2-Fluoro-4-methyl-5-(2,2,2-trifluoroethylsulfanyl)phenyl]-3,5,5-trimethylimidazolidine-2,4-dione] |  |  |  | 90 | 3.11 |  |  |
| C#CCn1c(=O)n(-c2cc([S+]([O-])CC(F)(F)F)c(C)cc2F)c(=O)n1C (racemic) [Example 123] | 100% | 1.96 |  |  |  |  |  |
| C=CCn1c(=O)n(-c2cc([S+]([O-])CC(F)(F)F)c(C)cc2F)c(=O)n1C (racemic) [Example 124] | 100% | 2.00 |  |  |  |  |  |
| CCn1c(=O)n(C(C)C)c(=O)n1-c1ccc(C)c(SCC(F)(F)F)c1 [Example 133] | 100% | 3.77 | 3.73 |  |  |  |  |
| CCn1c(=O)n(-c2cc(SCC(F)(F)F)c(C)cc2F)c(=O)n1CC [Example 118, 1,2-Diethyl-4-{2-fluoro-4-methyl-5-[(2,2,2-trifluoroethyl)sulfanyl]phenyl}-1,2,4-triazolidine-3,5-dione] |  |  |  | 100 | 3.03 |  |  |
| CCn1c(=O)n(C)n(-c2ccc(C)c(SCC(F)(F)F)c2)c1=O [Example 131] | 90% | 3.00 | 2.97 |  |  |  |  |
| CCCCN1CC(=O)N(c2cc([S+]([O-])CC(F)(F)F)c(C)cc2F)C1=O (stereo not drawn) [Example 203] | 90% | 2.47 | 2.43 |  |  |  |  |
| Cc1cc(F)c(N2C(=O)C(C)(C)C(=O)N2C)cc1SCC(F)(F)F [Example 174, 1-{2-Fluoro-4-methyl-5-[(2,2,2-trifluoroethyl)sulfanyl]phenyl}-2,4,4-trimethylpyrazolidine-3,5-dione] |  |  |  | 100 | 2.84 |  | 2.79 |
| Cc1cc(F)c(-n2c(=O)n(-c3ccccc3)c(=O)n2C)cc1SCC(F)(F)F [Example 162] |  | 3.42 | 3.27 |  |  | 100 |  |
| Cc1cc(F)c(N2C(=O)CN(Cc3ccccc3)C2=O)cc1SCC(F)(F)F [Example 204] | 100% | 3.49 | 3.48 |  |  |  |  |
| Cc1cc(F)c(-n2c(=O)n(C(C)C)c(=O)n2C)cc1[S+]([O-])CC(F)(F)F (stereo not drawn) [Example 92] | 100% | 2.27 | 2.22 |  |  |  |  |
| Cc1cc(F)c(N2C(=O)C(=O)N(CC(C)C)C2=S)cc1SCC(F)(F)F [Example 191] | 100% | 4.62 | 4.54 |  |  |  |  |
| Cc1cc(F)c(N2C(=O)C(=O)N(C(C)(C)C)C2=S)cc1SCC(F)(F)F [Example 193] | 100% and 90% | 4.50 | 4.42 |  |  |  |  |
| C#CCn1c(=O)n(-c2cc(SCC(F)(F)F)c(C)cc2F)c(=O)n1C [Example 121] | 100% | 2.81 |  |  |  |  |  |
| Cc1cc(F)c(-n2c(=O)n(C3CCCCC3)c(=O)n2C)cc1SCC(F)(F)F [Example 136] | 90% | 4.17 | 4.13 |  |  |  |  |
| Cc1cc(F)c(-n2c(=O)n(C(C)(C)C)c(=O)n2C)cc1SCC(F)(F)F [Example 94] |  | 3.85 | 3.82 |  |  | 90 |  |
